Laboratory results taken from patent publication US20260167638A1, “PHARMACEUTICAL COMPOUND, SALTS THEREOF, FORMULATIONS THEREOF, AND METHODS OF MAKING AND USING SAME” (Genentech, Inc., priority 2018, published 2026).
“And” between values parts separate entries of the source, which are not always exact repeats. Equal values may be shown once. Read-outs that look alike come from different tables or passages of the source.

Experiments:
[1] = Dissolution and precipitation in pH 6.5 phosphate buffer at 37° C. containing HPMC; format: physicochemical
Source text: The inclusion of HPMC in the tablet of Example 16 was to maintain the supersaturation of Compound I API after its mono-tosylate salt dissolves. […]

[2] = Example 21 crossover pharmacokinetics of mono-tosylate and di-tosylate tablets in fasted dogs; format: in vivo, beagle dogs; parameters: Plasma concentration of Compound I at 0.25 hours: unit: ng/mL; details: Example 21, fasted dogs, 200 mg tablet PO
Protocol: (§1) Pharmacokinetics parameters of formulations of Compound I and its salts in dogs were determined by orally administering a test formulation tablet at 200 mg of active (Compound I or salt) per dog.
(§2) Blood samples were taken at various times after administration, plasma prepared, and submitted to analysis for parent drug using a qualified LC-MS-MS assay. Pharmacokinetics parameters derived from the plasma analytical data were determined using non-compartmental analysis.
Pharmacokinetics of Compound I were determined in pentagastrin-pretreated male beagle dogs following a single oral (PO) administration at 200 mg/tablet per dog in a 2-phase crossover designed study, with a washout period of at least 7 days in between each phase. Five male, non-naive, purebred beagle dogs were used in each phase of the 2-phase crossover study. All dogs were pretreated with pentagastrin (6 μg/kg intramuscular administrations) approximately 30 minutes before test article administration.
Two tablet formulations (mono-tosylate and di-tosylate, as described above) of test article were assessed. Animals were fasted overnight prior to PO dosing through approximately 4 hours post-dose. The tablet was administered orally, followed by approximately 10 mL of reverse osmosis water. Phase 1 animals were given tablets containing Compound I mono-tosylate, and phase 2 animals were given tablets containing Compound I di-tosylate salt. Blood samples were collected pre-dose and at 0.25, 0.5. 1. 2, 4, 8, 24, 36, and 48 hours after the oral dose. Plasma was harvested, and the concentration of Compound I in each plasma sample was determined by an LC/MS/MS assay. The assay lower limit of quantitation was 20 ng/mL for Compound I. Mean Compound I concentrations measured in plasma were used to construct semi-logarithmic plasma concentration-time curves (FIG. 1). Pharmacokinetic analysis was performed using non-compartmental methods.

[3] = Water sorption / dynamic vapor sorption (DVS) hygroscopicity; format: physicochemical
Protocol: The pKa value of Compound I free base was calculated (ACD Labs pKa DB, v10.0) as 2.12±0.33. Therefore, Compound I free base was considered as a very weak base that could be protonated by strong acids. […] A sample of Compound I free base was analyzed by powder x-ray diffraction and found to be crystalline without any readily detectable amorphous content. […] (onset temperature).
The maximum water uptake for the amorphous salt was about 40% whereas the maximum water uptake for the crystalline di-hydrochloride salt was higher, with about 54% uptake.
The hygroscopic nature of the besylate salt was examined by dynamic vapor sorption analysis (DVS). […] Below 80% relative humidity not much water was adsorbed.

[4] = Approximate solubility in MeOH/MTBE at room temperature; format: physicochemical; details: organic solvent or mixture
Protocol: The approximate solubility of mono-tosylate Type A was measured in MeOH/MTBE at room temperature. […] To achieve appropriate volumetric efficiency and yield, the starting concentration in MeOH was 250 mg/mL and the final ratio of the anti-solvent crystallization process in MeOH/MTBE (v/v) was 1:3.

[5] = Example 19 crossover pharmacokinetics of four oral tablet formulations in fasted dogs; format: in vivo, beagle dogs; details: Example 19, fasted dogs, 200 mg tablet PO; for concentration at 1 h: read-out: Plasma concentration of Compound I at 1 hour; for concentration at 24 h: read-out: Plasma concentration of Compound I at 24 hours
Protocol: as §1, §2
Pharmacokinetics of Compound I was determined in pentagastrin-pretreated male beagle dogs following a single oral (PO) administration at 200 mg/tablet/dog in a 4-phase crossover study with a washout period of at least 7 days in between each phase. Five male non-naive purebred beagle dogs were used in each phase of study. All dogs were pretreated with pentagastrin (6 μg/kg intramuscular administrations) approximately 30 minutes before administration of test article.
Four tablet formulations of test article were assessed, each containing 200 mg test article (free base equivalent). Animals were fasted overnight prior to PO dosing through approximately 4 hours postdose. The tablet dose was administered orally, followed by approximately 10 mL of RO (reverse osmosis) water. Phase 1 animals were given tablets containing Compound I in nanosuspension formulation as described above, phase 2 animals were given tablets containing Compound I in jet-milled form as described above, and phase 4 animals received tablets containing Compound I mono-tosylate salt as described above. In phase 3, tablets including an amorphous solid dispersion as described above were crushed and suspended in water, then dosed to the animals. Each animal received one triturated tablet, which was administered orally by gavage as an aqueous suspension formulation. Blood samples were collected predose and at 0.25, 0.5 1, 2, 4, 8, 24, 36 and 48 hours after the oral dose. Plasma was harvested, and the concentration of Compound I in each sample was determined by a non-validated LC/MS/MS assay. The assay limit of quantitation was 1.02 to 5.1 ng/mL for Compound I.
Mean Compound I concentrations measured in plasma were used to construct semi-logarithmic plasma concentration-time curves (FIG. 13). Pharmacokinetic analysis was performed using a non-compartmental method.

[6] = individual subjects, LLOQ 20 ng/mL, mono-tosylate salt
[7] = individual subjects, mono-tosylate salt
[8] = male, beagle, dog, plasma, po, 200 mg, mean
[9] = male, beagle, dog, plasma, po, 200 mg, mean, read-out: AUC0-rt
[10] = male, beagle, dog, plasma, po, 200 mg, mean, read-out: Cmax
[11] = individual subjects, LOQ 1.02 to 5.1 ng/mL, mono-tosylate salt
[12] = male, beagle, dog, plasma, po, 200 mg/tablet/dog, individual subjects, LOQ 1.02 to 5.1 ng/mL
[13] = male, beagle, dog, plasma, po, 200 mg/tablet/dog, mean, LOQ 1.02 to 5.1 ng/mL

## Cc1ccc(S(=O)(=O)O)cc1.Cn1cc(-c2cn(-c3ccc(OC(F)(F)F)cc3)c(=O)c3ncn(C)c23)cn1 [mono-tosylate, 1-methyl-7-(1-methyl-1H-pyrazol-4-yl)-5-(4-(trifluoromethoxy)phenyl)-1,5-dihydro-4H-imidazo[4,5-c]pyridin-4-one, mono-tosylate salt]
[1]; HPMC 5 μg/mL
  Compound I concentration maintained: 160 µg/mL
[1]; HPMC 1 or 2 μg/mL
  maintenance of Compound I supersaturation: did not substantially maintain Compound I supersaturation
[1]; absence of HPMC, in 10 minutes
  API concentration after dissolution: 80 µg/mL
[2]; individual subjects, LLOQ 20 ng/mL
  Plasma concentration of Compound I at 48 hours: BLQ
[2]; [6]
  Plasma concentration of Compound I at 0.25 hours: 179 and 452 and 100 and 74.0 and 161
  Plasma concentration of Compound I at 0.5 hours: 1180 and 3040 and 1320 and 3170
  Plasma concentration of Compound I at 4 hours: 3550 and 5080 and 7990 and 10200 and 1850
  Plasma concentration of Compound I at 8 hours: 1140 and 3110 and 5060 and 5380 and 378
  Plasma concentration of Compound I at 24 hours: 95.5 and 4080 and 252 and 1050 and 25.7
  Plasma concentration of Compound I at 36 hours: BLQ (3×) and 897 and 74.4
[2]; [7]
  AUC0-last: 26900 ng·h/mL and 122000 ng·h/mL and 77900 ng·h/mL and 110000 ng·h/mL and 14000 ng·h/mL
  AUC0-rt: 27400 ng·h/mL and 123000 ng·h/mL and 79400 ng·h/mL and 110000 ng·h/mL and 14100 ng·h/mL
  Cmax: 3570 ng/mL and 5940 ng/mL and 9410 ng/mL and 10500 ng/mL and 2960 ng/mL
[2]; mean, LLOQ 20 ng/mL
  Plasma concentration of Compound I at 48 hours: BLQ
[2]; [8]
  AUC(0-t): 70200 ng·h/mL
[2]; [9]
  AUC: 70900 ng·h/mL
[2]; [10]
  Cmax: 6480 ng/mL
[2]; male, beagle, dog, plasma, po, 200 mg/tablet per dog, mean, LLOQ 20 ng/mL, read-out: Plasma concentration of Compound I at 0.25 hours
  concentration at 0.25 h: 193 ng/mL
[2]; male, beagle, dog, plasma, po, 200 mg/tablet per dog, mean, LLOQ 20 ng/mL, read-out: Plasma concentration of Compound I at 0.5 hours
  concentration at 0.5 h: 1910 ng/mL
[2]; male, beagle, dog, plasma, po, 200 mg/tablet per dog, mean, LLOQ 20 ng/mL, read-out: Plasma concentration of Compound I at 1 hour
  concentration at 1 h: 4690 ng/mL
[2]; male, beagle, dog, plasma, po, 200 mg/tablet per dog, mean, LLOQ 20 ng/mL, read-out: Plasma concentration of Compound I at 2 hours
  concentration at 2 h: 6480 ng/mL
[2]; male, beagle, dog, plasma, po, 200 mg/tablet per dog, mean, LLOQ 20 ng/mL, read-out: Plasma concentration of Compound I at 4 hours
  concentration at 4 h: 5730 ng/mL
[2]; male, beagle, dog, plasma, po, 200 mg/tablet per dog, mean, LLOQ 20 ng/mL, read-out: Plasma concentration of Compound I at 8 hours
  concentration at 8 h: 3010 ng/mL
[2]; male, beagle, dog, plasma, po, 200 mg/tablet per dog, mean, LLOQ 20 ng/mL, read-out: Plasma concentration of Compound I at 24 hours
  concentration at 24 h: 1100 ng/mL
[2]; male, beagle, dog, plasma, po, 200 mg/tablet per dog, mean, LLOQ 20 ng/mL, read-out: Plasma concentration of Compound I at 36 hours
  concentration at 36 h: 486 ng/mL
[2]; male, beagle, dog, plasma, mean, read-out: tmax
  tmax: 2 h
[3]
  reversibility of water adsorption within the timeframe of observation: essentially reversible
[4]; MeOH/MTBE (v/v, 1:2), read-out: approximate solubility in MeOH/MTBE (v/v, 1:2)
  solubility: 9.3 to 18.6 mg/mL
[4]; MeOH/MTBE (v/v, 1:3), read-out: approximate solubility in MeOH/MTBE (v/v, 1:3)
  solubility: < 5.4 mg/mL
[4]; methanol, read-out: approximate solubility in MeOH
  solubility: 264 to 348 mg/mL
[5]; [11]
  Plasma concentration of Compound I at 0.25 hours: 309 and 1500 and 2900 and 39.7 and 571
  Plasma concentration of Compound I at 0.5 hours: 3650 and 3910 and 5440 and 726 and 3520
  Plasma concentration of Compound I at 1 hour: 5470 and 7310 and 4880 and 5360
  Plasma concentration of Compound I at 2 hours: 9370 and 10200 and 5680 and 5450 and 4130
  Plasma concentration of Compound I at 4 hours: 8040 and 12900 and 4590 and 4840 and 3480
  Plasma concentration of Compound I at 8 hours: 3650 and 6910 and 2500 and 3060 and 1630
  Plasma concentration of Compound I at 24 hours: 597 and BLQ (3×)
  Plasma concentration of Compound I at 36 hours: 11.0 and 17.8 and BLQ (2×) and 842
  Plasma concentration of Compound I at 48 hours: BLQ (3×) and 200 and 10.1
[5]; [7]
  AUC0-last: 76500 ng·h/mL and 116000 ng·h/mL and 44300 ng·h/mL and 122000 ng·h/mL and 34200 ng·h/mL
  AUC0-rt: 76600 ng·h/mL and 116000 ng·h/mL and 44400 ng·h/mL and 123000 ng·h/mL and 34300 ng·h/mL
  Cmax: 9450 ng/mL and 12900 ng/mL and 7310 ng/mL and 5450 ng/mL and 5360 ng/mL
  tmax: 1.00 h
[5]; [8]
  AUC(0-t): 78500 ng·h/mL
[5]; [9]
  AUC: 78900 ng·h/mL
[5]; [10]
  Cmax: 8100 ng/mL
[5]; male, beagle, dog, plasma, po, 200 mg, mean, read-out: tmax
  tmax: 1.8 h
[5]; [12]
  concentration at 1 h: 9450 ng/mL
  concentration at 24 h: 352 ng/mL
[5]; male, beagle, dog, plasma, po, 200 mg/tablet/dog, mean, LOQ 1.02 to 5.1 ng/mL, read-out: Plasma concentration of Compound I at 0.25 hours
  concentration at 0.25 h: 1060 ng/mL
[5]; male, beagle, dog, plasma, po, 200 mg/tablet/dog, mean, LOQ 1.02 to 5.1 ng/mL, read-out: Plasma concentration of Compound I at 0.5 hours
  concentration at 0.5 h: 3450 ng/mL
[5]; [13]
  concentration at 1 h: 6490 ng/mL
  concentration at 24 h: 1070 ng/mL
[5]; male, beagle, dog, plasma, po, 200 mg/tablet/dog, mean, LOQ 1.02 to 5.1 ng/mL, read-out: Plasma concentration of Compound I at 2 hours
  concentration at 2 h: 6960 ng/mL
[5]; male, beagle, dog, plasma, po, 200 mg/tablet/dog, mean, LOQ 1.02 to 5.1 ng/mL, read-out: Plasma concentration of Compound I at 4 hours
  concentration at 4 h: 6780 ng/mL
[5]; male, beagle, dog, plasma, po, 200 mg/tablet/dog, mean, LOQ 1.02 to 5.1 ng/mL, read-out: Plasma concentration of Compound I at 8 hours
  concentration at 8 h: 3550 ng/mL
[5]; male, beagle, dog, plasma, po, 200 mg/tablet/dog, mean, LOQ 1.02 to 5.1 ng/mL, read-out: Plasma concentration of Compound I at 36 hours
  concentration at 36 h: 290 ng/mL
[5]; male, beagle, dog, plasma, po, 200 mg/tablet/dog, mean, LOQ 1.02 to 5.1 ng/mL, read-out: Plasma concentration of Compound I at 48 hours
  concentration at 48 h: 105 ng/mL
